pIC50: −log10 of the molar value. The source made the active and inactive calls. The calls are words filed in the database; no cut-off is given here.
Experiments:
[1] = test system: HGC-27; test: Induction of cell cycle arrest in human HGC-27 cells assessed as decrease in p-cdc25c level at 1 to 4 uM by Western blot analysis; type: functional, cell-based; conditions: dose 1-4 µM
[2] = Toxicity in BALB/c mouse xenografted with human MGC-803 cells assessed as effect on spleen at 10 to 20 mg/kg, ip administered once every two days measured after 15 days by H and E staining based assay; type: organism-based; conditions: in vivo, 360 h, dose 10-20 mg/kg, time 15 day
[3] = test system: HGC-27; test: Induction of apoptosis in human HGC-27 cells incubated for 48 hrs by Annexin V-FITC and PI staining based flow cytometry analysis; type: functional
[4] = Toxicity in BALB/c mouse xenografted with human MGC-803 cells assessed as effect on lung at 10 to 20 mg/kg, ip administered once every two days measured after 15 days by H and E staining based assay; type: organism-based; conditions: in vivo, 360 h, dose 10-20 mg/kg, time 15 day
[5] = test system: MCF7; test: Antiproliferative activity against human MCF7 cells assessed as inhibition of cell growth by SRB assay; type: functional, cell-based
[6] = test system: MGC-803; test: Induction of apoptosis in human MGC-803 cells incubated for 48 hrs by Annexin-V FITC staining based flow cytometry analysis; type: functional, cell-based; conditions: dose 1-4 µM, DDE = dose-dependent effect
[7] = Toxicity in BALB/c mouse xenografted with human MGC-803 cells assessed as effect on uric acid level at 10 to 20 mg/kg, ip administered once every two days; type: organism-based; conditions: in vivo, dose 10-20 mg/kg
[8] = test system: MGC-803; test: Inhibition of colony formation in human MGC-803 cells incubated for 24 hrs with fresh medium replacement for every two days measured for 11 days by crystal voilet staining based assay; type: functional, cell-based; conditions: dose 0.5-2 µM, time 11.0 day, DDE = dose-dependent effect
[9] = test system: MGC-803; test: Antiproliferative activity against human MGC-803 cells assessed as inhibition of cell growth incubated for 72 hrs by SRB assay; type: functional, cell-based; conditions: MGC-803, 72 h
[10] = test system: HGC-27; test: Antiproliferative activity against human HGC-27 cells assessed as inhibition of cell growth at 0.25 to 8 uM by SRB assay; type: functional, cell-based; conditions: dose 0.25-8 µM, time 24-72 hrs, TDE = time-dependent effect
[11] = test system: MGC-803; test: Induction of cell cycle arrest in human MGC-803 cells assessed as accumulation of cells at G2/M phase at 2 uM incubated for 36 hrs by PI staining based flow cytometry analysis (reference value: 20.5%); type: functional
[12] = test system: MGC-803; test: Induction of cell cycle arrest in human MGC-803 cells assessed as accumulation of cells at G1 phase at 4 uM incubated for 36 hrs by PI staining based flow cytometry analysis (reference value: 45.8%); type: functional
[13] = test system: MGC-803; test: Induction of apoptosis in human MGC-803 cells assessed as decrease in caspase 7 protein expression level at 1 to 4 uM incubated for 48 hrs by Western blot analysis; type: functional, cell-based; conditions: dose 1-4 µM
[14] = test system: HGC-27; test: Induction of cell cycle arrest in human HGC-27 cells assessed as accumulation of cells at S phase at 4 uM incubated for 36 hrs by PI staining based flow cytometry analysis (reference value: 8.87%); type: functional
[15] = test system: ECa-109 cell line; test: Antiproliferative activity against human EC109 cells assessed as inhibition of cell growth by SRB assay; type: functional, cell-based
[16] = test system: MGC-803; test: Antiproliferative activity against human MGC-803 cells assessed as inhibition of cell growth incubated for 24 to 72 hrs by SRB assay; type: functional, cell-based; conditions: dose 0.25-8 µM, time 24-72 hrs, DDE = dose-dependent effect
[17] = test system: HGC-27; test: Induction of cell cycle arrest in human HGC-27 cells assessed as accumulation of cells at S phase at 2 uM incubated for 36 hrs by PI staining based flow cytometry analysis (reference value: 8.87%); type: functional
[18] = test system: MGC-803; test: Induction of cell cycle arrest in human MGC-803 cells assessed as decrease in p-cdc25c level at 1 to 4 uM by Western blot analysis; type: functional, cell-based; conditions: dose 1-4 µM
[19] = test system: MGC-803; test: Induction of cell cycle arrest in human MGC-803 cells assessed as decrease in p-cdc2 level at 1 to 4 uM by Western blot analysis; type: functional, cell-based; conditions: dose 1-4 µM
[20] = test system: HGC-27; test: Induction of cell cycle arrest in human HGC-27 cells assessed as accumulation of cells at G2/M phase at 2 uM incubated for 36 hrs by PI staining based flow cytometry analysis (reference value: 26.2%); type: functional
[21] = test system: MGC-803; test: Activation of ROS/JNK signalling in human MGC-803 cells assessed as increase in p-ASK1 level by Western blot analysis; type: cell-based; conditions: filed as activator, dose 1-4 µM, DDE = dose-dependent effect
[22] = Toxicity in BALB/c mouse xenografted with human MGC-803 cells assessed as effect on ALT level at 10 to 20 mg/kg, ip administered once every two days; type: organism-based; conditions: in vivo, dose 10-20 mg/kg
[23] = test system: HGC-27; test: Induction of cell cycle arrest in human HGC-27 cells assessed as decrease in cyclin-B1 level at 1 to 4 uM by Western blot analysis; type: functional, cell-based; conditions: dose 1-4 µM
[24] = test system: MGC-803; test: Induction of DNA damage in human MGC-803 cells assessed as appearance of longer comet tail at 4 uM; type: functional, cell-based
[25] = test system: HGC-27; test: Induction of cell cycle arrest in human HGC-27 cells assessed as accumulation of cells at S phase at 1 uM incubated for 36 hrs by PI staining based flow cytometry analysis (reference value: 8.87%); type: functional
[26] = test system: MGC-803; test: Induction of apoptosis in human MGC-803 cells assessed as increase in bax/bcl-2 expression level at 1 to 4 uM incubated for 48 hrs by Western blot analysis; type: functional, cell-based; conditions: dose 1-4 µM
[27] = test system: HGC-27; test: Induction of apoptosis in human HGC-27 cells incubated for 48 hrs by Annexin-V FITC staining based flow cytometry analysis; type: functional, cell-based; conditions: dose 1-4 µM, DDE = dose-dependent effect
[28] = test system: HGC-27; test: Activation of ROS/JNK signalling in human HGC-27 cells assessed as increase in p-MKK4 level by Western blot analysis; type: cell-based; conditions: filed as activator, dose 1-4 µM, DDE = dose-dependent effect
[29] = test system: MGC-803; test: Induction of apoptosis in human MGC-803 cells assessed as increase in cleaved caspase 9 protein expression level at 1 to 4 uM incubated for 48 hrs by Western blot analysis; type: functional, cell-based; conditions: dose 1-4 µM
[30] = test system: HGC-27; test: Antiproliferative activity against human HGC-27 cells assessed as inhibition of cell growth incubated for 24 to 72 hrs by SRB assay; type: functional, cell-based; conditions: dose 0.25-8 µM, time 24-72 hrs, DDE = dose-dependent effect
[31] = test system: MGC-803; test: Induction of apoptosis in human MGC-803 cells incubated for 48 hrs in presence of NAC by Annexin V-FITC and PI staining based flow cytometry analysis; type: functional
[32] = test system: MGC-803; test: Antitumor activity against human MGC-803 cells xenografted with BALB/c mouse assessed as vacuolated cytoplasm at 10 to 20 mg/kg, ip administered once every two days; type: functional, organism-based; conditions: dose 10-20 mg/kg
[33] = Antiproliferative activity against human L02 cells assessed as inhibition of cell growth incubated for 72 hrs by SRB assay; type: toxicity, cell-based
[34] = test system: HGC-27; test: Inhibition of colony formation in human HGC-27 cells incubated for 24 hrs with fresh medium replacement for every two days measured for 11 days by crystal voilet staining based assay; type: functional, cell-based; conditions: dose 0.5-2 µM, time 11.0 day, DDE = dose-dependent effect
[35] = test system: HGC-27; test: Induction of cell cycle arrest in human HGC-27 cells assessed as accumulation of cells at G1 phase at 4 uM incubated for 36 hrs by PI staining based flow cytometry analysis (reference value: 49.6%); type: functional
[36] = test system: MGC-803; test: Induction of DNA damage in human MGC-803 cells assessed as increase in p-ATM generation incubated for 48 hrs by Western blot analysis; type: functional, cell-based; conditions: DDE = dose-dependent effect
[37] = test system: HGC-27; test: Induction of apoptosis in human HGC-27 cells assessed as increase in cleaved caspase 9 protein expression level at 1 to 4 uM incubated for 48 hrs by Western blot analysis; type: functional, cell-based; conditions: dose 1-4 µM

Compound: Cc1ccc(NC2=CC(=O)c3nc4n(c3C2=O)[C@H]2OC[C@@H](O)[C@H]2OC4)cc1C
- Activity [1]: Active
- Activity [2]: Non-Toxic
- Activity [3]: 54.5%
- Activity [4]: Non-Toxic
- pIC50 [5]: 5.68
- Activity [6]: Dde
- Activity [7]: Non-Toxic
- inhibition [8]: Dde
- pIC50 [9]: 6.07
- Activity [10]: Tde
- Activity [11]: 24%
- Activity [12]: 30.8%
- Activity [13]: Active
- Activity [14]: 14.4%
- pIC50 [15]: 5.55
- Activity [16]: Dde
- Activity [17]: 10.7%
- Activity [18]: Active
- Activity [19]: Active
- Activity [20]: 32.3%
- Activity [21]: Dde
- Activity [22]: Non-Toxic
- Activity [23]: Active
- Activity [24]: Active
- Activity [25]: 8.8%
- Activity [26]: Active
- Activity [27]: Dde
- Activity [28]: Dde
- Activity [29]: Active
- Activity [30]: Dde
- Activity [31]: 9.29%
- Activity [32]: Active
- IC50 at 72 h [33]: 24.8 µM
- inhibition [34]: Dde
- Activity [35]: 28%
- Activity [36]: Dde
- Activity [37]: Active
